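Following 48 hours of exposure in 96-well plates, responses at five concentrations were used to interpolate endpoints linearly. Abbreviation: GI50, concentration required for 50% inhibition of growth.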 Calls of active or inactive are those of the source. Cut-off read from the data, not from the text of the source: active = GI50 up to about 1.1 µM and inactive = higher.
How the values were obtained:
Test in all cases: NCI tumour cell line growth inhibition, 48 h
Hs-578T = test system: Hs-578T
BT-549 = test system: BT-549
MOLT-4 = test system: MOLT-4
HCT-15 = test system: HCT-15
SW-620 = test system: SW-620
SK-MEL-28 = test system: SK-MEL-28
Malme-3M = test system: Malme-3M
SNB-19 = test system: SNB-19
LOX IMVI = test system: LOX IMVI
M14 = test system: M14
UO-31 = test system: UO-31
UACC-257 = test system: UACC-257
OVCAR-5 = test system: OVCAR-5
OVCAR-8 = test system: OVCAR-8
HOP-62 = test system: HOP-62
CCRF-CEM = test system: CCRF-CEM
CAKI-1 = test system: CAKI-1
SK-OV-3 = test system: SK-OV-3
COLO 205 = test system: COLO 205
U-251 = test system: U-251
NCI/ADR-RES = test system: NCI/ADR-RES
IGROV-1 = test system: IGROV-1
TK-10 = test system: TK-10
OVCAR-4 = test system: OVCAR-4
OVCAR-3 = test system: OVCAR-3
HCC 2998 = test system: HCC 2998
MCF7 = test system: MCF7
HCT-116 = test system: HCT-116
ACHN = test system: ACHN
NCI-H522 = test system: NCI-H522
MDA-MB-231 = test system: MDA-MB-231
HL-60 = test system: HL-60
RPMI-8226 = test system: RPMI-8226
MDA-MB-435 = test system: MDA-MB-435
NCI-H460 = test system: NCI-H460
SF-539 = test system: SF-539
786-0 = test system: 786-0
SF-268 = test system: SF-268
SK-MEL-2 = test system: SK-MEL-2
MDA-N = test system: MDA-N
HT-29 = test system: HT-29
UACC-62 = test system: UACC-62
T47D = test system: T47D
SF-295 = test system: SF-295
NCI-H23 = test system: NCI-H23
PC-3 = test system: PC-3
SN12C = test system: SN12C
DU-145 = test system: DU-145
KM12 = test system: KM12
SNB-75 = test system: SNB-75
HOP-92 = test system: HOP-92
A549 = test system: A549
SK-MEL-5 = test system: SK-MEL-5
NCI-H226 = test system: NCI-H226
SR = test system: SR
K562 = test system: K562
EKVX = test system: EKVX

Measured: GI50

O=C1CCc2ccc3c(c21)CC1(Cc2ccccc2C1)C3
inactive: Hs-578T 25.8 µM | BT-549 10 µM | MOLT-4 3.8 µM | SW-620 4.47 µM | SK-MEL-28 4.37 µM | Malme-3M 10.5 µM | SNB-19 23.1 µM | LOX IMVI 2.59 µM | M14 4.73 µM | UO-31 3.45 µM | UACC-257 5.48 µM | OVCAR-5 11.3 µM | OVCAR-8 7.62 µM | HOP-62 6.37 µM | CCRF-CEM 10.6 µM | CAKI-1 5.24 µM | SK-OV-3 41.4 µM | COLO 205 16.2 µM | U-251 8.05 µM | NCI/ADR-RES 5.5 µM | IGROV-1 13.3 µM | TK-10 11.1 µM | OVCAR-4 10.5 µM | OVCAR-3 4.01 µM | HCC 2998 14.4 µM | MCF7 19.2 µM | HCT-116 3.98 µM | ACHN 5.27 µM | NCI-H522 10.2 µM | MDA-MB-231 4.45 µM | HL-60 2.11 µM | RPMI-8226 6.55 µM | MDA-MB-435 5.98 µM | NCI-H460 2.57 µM | SF-539 5.45 µM | 786-0 6.58 µM | SF-268 12.7 µM | SK-MEL-2 14.2 µM | MDA-N 2.69 µM | HT-29 3.71 µM | UACC-62 7.1 µM | T47D 8.55 µM | SF-295 3.72 µM | NCI-H23 11.6 µM | PC-3 8.73 µM | SN12C 4.8 µM | DU-145 13 µM | KM12 7.52 µM | SNB-75 14.4 µM | HOP-92 5.96 µM | A549 7.78 µM | SK-MEL-5 3.38 µM | NCI-H226 19.1 µM | SR 3.58 µM
4.67 µM: HCT-15

CN1/C(=C\N=O)C(C)(C)N(O)C1(C)C
> 100 µM: HCT-15
inactive: Hs-578T > 100 µM | BT-549 > 100 µM | MOLT-4 > 100 µM | SW-620 > 100 µM | SK-MEL-28 > 100 µM | Malme-3M > 100 µM | SNB-19 > 100 µM | LOX IMVI > 100 µM | M14 > 100 µM | UO-31 > 100 µM | UACC-257 > 100 µM | OVCAR-5 > 100 µM | OVCAR-8 > 100 µM | HOP-62 > 100 µM | CCRF-CEM > 100 µM | CAKI-1 > 100 µM | SK-OV-3 > 100 µM | COLO 205 > 100 µM | U-251 > 100 µM | NCI/ADR-RES > 100 µM | IGROV-1 > 100 µM | TK-10 > 100 µM | OVCAR-4 > 100 µM | OVCAR-3 > 100 µM | HCC 2998 > 100 µM | MCF7 > 100 µM | HCT-116 > 100 µM | ACHN > 100 µM | NCI-H522 > 100 µM | MDA-MB-231 > 100 µM | HL-60 > 100 µM | RPMI-8226 > 100 µM | MDA-MB-435 > 100 µM | NCI-H460 > 100 µM | SF-539 > 100 µM | 786-0 > 100 µM | SF-268 > 100 µM | SK-MEL-2 > 100 µM | MDA-N > 100 µM | HT-29 > 100 µM | UACC-62 > 100 µM | T47D > 100 µM | SF-295 > 100 µM | NCI-H23 > 100 µM | PC-3 > 100 µM | SN12C > 100 µM | DU-145 > 100 µM | KM12 > 100 µM | SNB-75 > 100 µM | HOP-92 > 100 µM | A549 > 100 µM | K562 > 100 µM | EKVX > 100 µM | SK-MEL-5 > 100 µM | NCI-H226 > 100 µM | SR > 100 µM

— ChEMBL document CHEMBL1201862, “PubChem BioAssay data set” (2004)
